The values that follow come from PubChem BioAssay (NCI).

Among the test systems are RPMI-8226 leukemia; SF-539 CNS; SR leukemia; SW-620 colon; OVCAR-4 ovarian; CAKI-1 renal; SN12C renal; ACHN renal; T-47D breast; HS 578T breast.
Assay in all cases: NCI anticancer screen, dose series, 48 h

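48-hour exposure; five concentrations; linearly interpolated endpoints. Here, GI50 denotes the concentration required for 50% inhibition of growth. Definition used: TGI = concentration required for complete inhibition of growth.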 A value given as a limit tells only on which side of the number the result lay.

For `CN1CCN(C)C12C=c1ccccc1=CC21CC1`, the TGI in the test with RPMI-8226 leukemia is 75.1 µM; in the test on SF-539 CNS, greater than 100 µM; in the test on SR leukemia, 63.2 µM; with SW-620 colon it was 48.3 µM; in the test with OVCAR-4 ovarian, greater than 100 µM; with CAKI-1 renal, greater than 100 µM. Also, the TGI is greater than 100 µM in the test with SN12C renal, greater than 100 µM in the test on ACHN renal, greater than 86.2 µM with T-47D breast and greater than 31.6 µM in the test with HS 578T breast.
For the molecule `O=C(/C(Br)=C/c1ccccc1)c1ccccc1`, the GI50 is 2.41 µM with RPMI-8226 leukemia; 2.12 µM in the test on SF-539 CNS; 1.41 µM with SR leukemia; 1.63 µM in the test with SW-620 colon; 3.79 µM with OVCAR-4 ovarian; 1.34 µM in the test on CAKI-1 renal. Moreover, the GI50 was 2.34 µM with SN12C renal, 1.22 µM with ACHN renal, 1.82 µM in the test with T-47D breast and 8.12 µM in the test on HS 578T breast. In addition, the TGI in the test on RPMI-8226 leukemia was found to be 7.07 µM; in the test on SF-539 CNS, 4.72 µM; with SR leukemia it was 8.74 µM; in the test with SW-620 colon, 3.9 µM; in the test with OVCAR-4 ovarian it was 16.9 µM; in the test with CAKI-1 renal, 3.39 µM. Besides, the TGI with SN12C renal was determined as 5.85 µM; in the test with ACHN renal, 2.48 µM; in the test with T-47D breast, 4.71 µM; with HS 578T breast it was 52.4 µM.
On to `CC[CH2][Sn]([CH2]CC)([O]C(=O)c1cccnc1SC)[O][Sn]([CH2]CC)([CH2]CC)[O]C(=O)c1cccnc1SC`, for which the GI50 is 0.139 µM with RPMI-8226 leukemia; 0.468 µM with SF-539 CNS; 0.214 µM with SR leukemia; 0.216 µM in the test on SW-620 colon; 1.03 µM with OVCAR-4 ovarian; 0.266 µM with CAKI-1 renal. For the same molecule, the GI50 in the test on SN12C renal was 0.453 µM; in the test with ACHN renal, 0.427 µM; in the test on T-47D breast, 0.287 µM; in the test on HS 578T breast it was 1.5 µM. For the same molecule, the TGI in the test on RPMI-8226 leukemia was greater than 100 µM; with SF-539 CNS it was 1.24 µM; in the test with SR leukemia it was 12.1 µM; in the test with SW-620 colon, 0.503 µM; in the test with OVCAR-4 ovarian, 2.34 µM; in the test on CAKI-1 renal, 0.801 µM. Also, the TGI with SN12C renal was 1.39 µM; with ACHN renal, 0.97 µM; in the test with T-47D breast, 1.52 µM; with HS 578T breast it was 6.36 µM.
For `CC1=CC(=Nc2ccc(N(CCCl)CCCl)cc2)C=C(C)C1=O`, the GI50 in the test on RPMI-8226 leukemia was 1.14 µM; with SF-539 CNS, 0.448 µM; in the test with SR leukemia, 0.288 µM; in the test on SW-620 colon it was 0.816 µM; in the test with OVCAR-4 ovarian, 1.56 µM; in the test on CAKI-1 renal it was 0.116 µM. Further, the GI50 with SN12C renal is 1.01 µM; with ACHN renal, 0.29 µM; with T-47D breast, 0.64 µM; in the test with HS 578T breast it was 2.08 µM. For the same molecule, the TGI with RPMI-8226 leukemia is 9.29 µM; in the test with SF-539 CNS, 8.71 µM; in the test on SR leukemia, greater than 33.9 µM; in the test on SW-620 colon it was 4.6 µM; in the test on OVCAR-4 ovarian, 4.76 µM; in the test with CAKI-1 renal it was 1.08 µM. Besides, the TGI was greater than 26.7 µM in the test with SN12C renal, 1.61 µM in the test with ACHN renal, 3.22 µM in the test with T-47D breast and 7.73 µM in the test on HS 578T breast.
Turning to `CC1(C)OC2[C@@H](CNC(=O)NC(=O)NC(=O)CI)O[C@@H](n3cnc4c(NC(=O)Nc5ccccc5)ncnc43)[C@H]2O1` (stereo partly drawn), the GI50 with RPMI-8226 leukemia is 7.82 µM; in the test with SF-539 CNS it was 4.75 µM; with SR leukemia, 0.954 µM; in the test on SW-620 colon, 2.08 µM; in the test with OVCAR-4 ovarian, 7.16 µM; with CAKI-1 renal, 0.79 µM. Moreover, the GI50 in the test on SN12C renal is 10.3 µM; in the test with ACHN renal it was 6.94 µM; in the test on T-47D breast it was 9.64 µM; in the test with HS 578T breast it was 12.5 µM. In addition, the TGI with RPMI-8226 leukemia was 23.3 µM; in the test on SF-539 CNS it was 10.9 µM; in the test on SR leukemia, 2.3 µM; in the test with SW-620 colon it was 8.13 µM; with OVCAR-4 ovarian, 21 µM; with CAKI-1 renal it was 1.56 µM. Moreover, the TGI in the test on SN12C renal was determined as 28.6 µM; with ACHN renal, 14.7 µM; in the test on T-47D breast, 21.5 µM; in the test with HS 578T breast it was 37.8 µM.
For the molecule `COc1cc(C2NC(=O)c3ccccc3N2)ccc1OCCCCCOc1c(OC)cc(C2=NOC(c3cc(OC)c(OC)c(OC)c3)C2)cc1OC` (stereo not drawn), the GI50 in the test with RPMI-8226 leukemia is 0.0754 µM; with SF-539 CNS, 19.4 µM; in the test with SR leukemia, 0.947 µM; in the test on SW-620 colon, 14.7 µM; with OVCAR-4 ovarian, 0.417 µM; in the test on CAKI-1 renal, greater than 42.4 µM. Also, the GI50 in the test with SN12C renal was 31.3 µM; in the test with ACHN renal, 0.556 µM; in the test with T-47D breast, 0.239 µM; in the test on HS 578T breast, 15.7 µM. Moreover, the TGI with RPMI-8226 leukemia was 1.1 µM; in the test with SF-539 CNS, 84.7 µM; with SR leukemia it was greater than 100 µM; in the test on SW-620 colon, greater than 100 µM; in the test on OVCAR-4 ovarian, greater than 100 µM; with CAKI-1 renal it was greater than 100 µM. Also, the TGI in the test with SN12C renal was greater than 100 µM; with ACHN renal, greater than 100 µM; with T-47D breast it was greater than 100 µM; with HS 578T breast, greater than 82 µM.
In the case of `CC[C@@H]1CN(C)[C@H]2Cc3c([nH]c4ccccc34)C(=O)C[C@H]1C2C(=O)OC` (stereo partly drawn), the TGI in the test on RPMI-8226 leukemia is greater than 100 µM; with SF-539 CNS, greater than 100 µM; in the test on SR leukemia it was greater than 100 µM; in the test on SW-620 colon, greater than 100 µM; in the test with OVCAR-4 ovarian it was greater than 31.6 µM; with CAKI-1 renal it was greater than 100 µM. Further, the TGI in the test with SN12C renal, with ACHN renal, with T-47D breast and in the test on HS 578T breast was greater than 100 µM each time.
As for `Nc1cc(N)c2nc(-c3ccccc3)c(Nc3ccc(Cl)c(Cl)c3)nc2c1`, the GI50 was 2 µM in the test with RPMI-8226 leukemia; 17.1 µM in the test on SF-539 CNS; 2.56 µM with SR leukemia; 13.3 µM in the test with SW-620 colon; 11.1 µM in the test with OVCAR-4 ovarian; 13.5 µM in the test on CAKI-1 renal. The GI50 in the test with SN12C renal was 12.7 µM; in the test with T-47D breast it was 11.6 µM; with HS 578T breast, 18.9 µM. The TGI came out at 4.92 µM with RPMI-8226 leukemia; 35.3 µM in the test on SF-539 CNS; 15.5 µM in the test on SR leukemia; 51.8 µM in the test on SW-620 colon; 47.8 µM in the test on OVCAR-4 ovarian; 29.6 µM in the test on CAKI-1 renal. For the same molecule, the TGI in the test with SN12C renal stood at 31.8 µM; in the test with T-47D breast it was 31.1 µM; in the test on HS 578T breast it was 51.7 µM.
